This note sets out measurements from patent publication US20250099596A1, “TETRAHYDRONAPHTHALENE COMPOUND, AND PREPARATION METHOD THEREFOR AND USE THEREOF IN MEDICINE” (Jiangsu Hengrui Pharmaceuticals Co., Ltd., priority 2021, published 2025).

One experiment has as its system MCF7 cells. Kind of experiment: Inhibitory effects on MCF7 cell proliferation (CellTiter-Glo). Format: cell-based. Conditions: Homo sapiens, 144 h, 6 days incubation, read-out: IC50 (nM), inhibition of MCF7 cell proliferation. How it is done: (§1) MCF7 cells (TCHu74, National Collection of Authenticated Cell Cultures) were cultured in an MEM (GE Healthcare, SH30024.01) complete medium containing 10% fetal bovine serum. On day 1 of the experiment, MCF7 cells were seeded into a 96-well plate at a density of 3,000 cells/well using MEM containing 2% fetal bovine serum, with each well containing 135 μL of cell suspension. The plate was incubated in a 37° C., 5% CO2 cell incubator overnight. The next day, different concentrations of test compounds prepared in media were added at 15 μL/well. The final concentrations of the compounds were 9 concentration points obtained by 4-fold serial dilution from 1000 nM. A blank control containing 0.5% DMSO was set up. The plate was incubated in a 37° C., 5% CO2 cell incubator for 6 days. On day 8, the 96-well cell culture plate was taken out, and CellTiter-Glo® Luminescent Cell Viability Assay (Promega, G7573) was added at 75 μL/well. After the plate was left at room temperature for 10 min, luminescence signal readings were taken on a multilabel microplate reader (PerkinElmer, VICTOR 3). The IC50 values for the inhibitory activity of the compounds were calculated from the concentrations of the compounds and the luminescence signal readings using Graphpad Prism software.
(In ATP-based viability assays light output follows the ATP content of the culture.)

For a further experiment, the system named is MCF7/ERα Y537S cells. The experiment is described as follows: Inhibitory activity on proliferation of ERα mutant-expressing MCF7 cells. Format: cell-based. As to conditions: Homo sapiens, 144 h, 6 days incubation, CellTiter-Glo, read-out: IC50 (nM), inhibition of proliferation of ERα mutant-expressing MCF7 cells. The method, then:
The objective of this experiment was to determine the inhibitory activity of the compounds of the present disclosure on the proliferation of ERα mutant-expressing MCF7 cells.
as §1, with “cells expressing the ERα Y537S mutant were constructed by lentiviral infection. MCF7/ERα Y537S cells” for “cells (TCHu74, National Collection of Authenticated Cell Cultures)”, “bovine serum and […] puromycin.” for “bovine serum.”, “experiment,” for “experiment, MCF7”, “135 µL” for “135 μL”, “75 µL/well.” for “75 μL/well.”

Regarding `CC[C@H]1CCc2cc(O)ccc2[C@H]1c1ccc(N2CCC(CN3CCN(c4ccc5c(c4)CN([C@H]4CCC(=O)NC4=O)C5=O)CC3)CC2)cc1` [Example 28, (S)-3-(5-(4-((1-(4-((1R,2S)-6-Hydroxy-2-ethyl-1,2,3,4-tetrahydronaphthalen-1-yl)phenyl)piperidin-4-yl)methyl)piperazin-1-yl)-1-oxoisoindolin-2-yl)piperidine-2,6-dione], the IC50 was 1.51 nM with MCF7 cells and 5.21 nM with MCF7/ERα Y537S cells.

Take `CC1(C)CCc2cc(O)ccc2[C@H]1c1ccc(N2CCC(CN3CCN(c4ccc5c(c4)CN(C4CCC(=O)NC4=O)C5=O)CC3)CC2)cc1` (mixture of isomers) [Example 25-1, 3-(5-(4-((1-(4-((R)-6-Hydroxy-2,2-dimethyl-1,2,3,4-tetrahydronaphthalen-1-yl)phenyl)piperidin-4-yl)methyl)piperazin-1-yl)-1-oxoisoindolin-2-yl)piperidine-2,6-dione]: the figures for the IC50 in the experiment on MCF7 cells and with MCF7/ERα Y537S cells were 2.46 nM and 12.9 nM, respectively.

For `CC(C)(C)C[C@H]1CCc2cc(O)ccc2[C@H]1c1ccc(N2CCC(CN3CCN(c4ccc5c(c4)CN([C@H]4CCC(=O)NC4=O)C5=O)CC3)CC2)cc1` [Example 39, (S)-3-(5-(4-((1-(4-((1R,2R)-6-Hydroxy-2-neopentyl-1,2,3,4-tetrahydronaphthalen-1-yl)phenyl)piperidin-4-yl)methyl)piperazin-1-yl)-1-oxoisoindolin-2-yl)piperidine-2,6-dione], the IC50 with MCF7 cells worked out at 5.23 nM; in the experiment with MCF7/ERα Y537S cells, 15.8 nM.

For `O=C1CCC(N2Cc3cc(N4CCN(CC5CCN(c6ccc(C7c8ccc(O)cc8CC[C@@H]7C7CCC(F)(F)CC7)cc6)CC5)CC4)ccc3C2=O)C(=O)N1` (stereo partly drawn) [Example 9, 3-(5-(4-((1-(4-((1,2)-cis-2-(4,4-Difluorocyclohexyl)-6-hydroxy-1,2,3,4-tetrahydronaphthalen-1-yl)phenyl)piperidin-4-yl)methyl)piperazin-1-yl)-1-oxoisoindolin-2-yl)piperidine-2,6-dione], the IC50 with MCF7 cells is 2.14 nM; in the experiment on MCF7/ERα Y537S cells, 8.73 nM.

Take `O=C1CCC(N2Cc3cc(N4CCN(CC5CCN(c6ccc([C@H]7c8ccc(O)cc8CCC78CCC8)cc6)CC5)CC4)ccc3C2=O)C(=O)N1` (mixture of isomers) [Example 23-2, 3-(5-(4-((1-(4-((S)-6′-Hydroxy-3′,4′-dihydro-1′H-spiro[cyclobutane-1,2′-naphthalen]-1′-yl)phenyl)piperidin-4-yl)methyl)piperazin-1-yl)-1-oxoisoindolin-2-yl)piperidine-2,6-dione]: the IC50 in the experiment on MCF7 cells was 20 nM; in the experiment on MCF7/ERα Y537S cells, 72.1 nM.

On to `O=C1CC[C@H](N2Cc3cc(N4CCN(CC5CCN(c6ccc([C@@H]7c8ccc(O)cc8CC[C@@H]7Cc7ccccc7)cc6)CC5)CC4)ccc3C2=O)C(=O)N1` [Example 30, (S)-3-(5-(4-((1-(4-((1R,2R)-2-Benzyl-6-hydroxy-1,2,3,4-tetrahydronaphthalen-1-yl)phenyl)piperidin-4-yl)methyl)piperazin-1-yl)-1-oxoisoindolin-2-yl)piperidine-2,6-dione], for which the IC50 was found to be 3.02 nM in the experiment with MCF7 cells and 12.7 nM in the experiment with MCF7/ERα Y537S cells.

For `O=C1CC[C@H](N2Cc3cc(N4CCN(CC5CCN(c6ccc([C@@H]7c8ccc(O)cc8CC[C@@H]7C7CC7)cc6F)CC5)CC4)ccc3C2=O)C(=O)N1` [Example 21, (S)-3-(5-(4-((1-(4-((1R,2R)-2-Cyclopropyl-6-hydroxy-1,2,3,4-tetrahydronaphthalen-1-yl)-2-fluorophenyl)piperidin-4-yl)methyl)piperazin-1-yl)-1-oxoisoindolin-2-yl)piperidine-2,6-dione], the IC50 with MCF7 cells was determined as 1.72 nM; with MCF7/ERα Y537S cells it was 5.66 nM.

As for `O=C1CC[C@H](N2Cc3cc(N4CCN(CC5CCN(c6ccc([C@@H]7c8ccc(O)cc8CC[C@@H]7C7CCC7)cc6F)CC5)CC4)ccc3C2=O)C(=O)N1` [Example 18-1, (S)-3-(5-(4-((1-(4-((1R,2R)-2-Cyclobutyl-6-hydroxy-1,2,3,4-tetrahydronaphthalen-1-yl)-2-fluorophenyl)piperidin-4-yl)methyl)piperazin-1-yl)-1-oxoisoindolin-2-yl)piperidine-2,6-dione], the IC50 with MCF7 cells is 1.35 nM; with MCF7/ERα Y537S cells, 7.77 nM.

For `O=C1CCC(N2Cc3cc(N4CCN(CC5CCN(c6ccc(C7c8ccc(O)cc8CCC78CCCC8)cc6)CC5)CC4)ccc3C2=O)C(=O)N1` (stereo not shown) [Example 1, 3-(5-(4-((1-(4-(6′-Hydroxy-3′,4′-dihydro-1′H-spiro[cyclopentane-1,2′-naphthalen]-1′-yl)phenyl)piperidin-4-yl)methyl)piperazin-1-yl)-1-oxoisoindolin-2-yl)piperidine-2,6-dione], the IC50 with MCF7 cells is 6.15 nM; in the experiment with MCF7/ERα Y537S cells, 14.9 nM.

In the case of `O=C1CCC(N2Cc3cc(N4CCN(CC5CCN(c6ccc([C@@H]7c8ccc(O)cc8CC[C@@H]7CC7CC7)cc6)CC5)CC4)ccc3C2=O)C(=O)N1` (stereo in doubt) [Example 34, (S)-3-(5-(4-((1-(4-((1R,2R)-2-(Cyclopropylmethyl)-6-hydroxy-1,2,3,4-tetrahydronaphthalen-1-yl)phenyl)piperidin-4-yl)methyl)piperazin-1-yl)-1-oxoisoindolin-2-yl)piperidine-2,6-dione], the IC50 was found to be 1.51 nM in the experiment on MCF7 cells and 19.2 nM with MCF7/ERα Y537S cells.

For the compound `CC(C)[C@H]1CCc2cc(O)ccc2[C@H]1c1ccc(N2CCC(CN3CCN(c4ccc5c(c4)CN([C@H]4CCC(=O)NC4=O)C5=O)CC3)CC2)cc1` [Example 24, (S)-3-(5-(4-((1-(4-((1R,2R)-6-Hydroxy-2-isopropyl-1,2,3,4-tetrahydronaphthalen-1-yl)phenyl)piperidin-4-yl)methyl)piperazin-1-yl)-1-oxoisoindolin-2-yl)piperidine-2,6-dione], the IC50 stood at 1.21 nM with MCF7 cells and 5.44 nM with MCF7/ERα Y537S cells.

For the compound `O=C1CCC(N2Cc3cc(N4CCN(CC5CCN(c6ccc([C@@H]7c8ccc(O)cc8CC[C@@H]7C7CC7)cc6)CC5)CC4)ccc3C2=O)C(=O)N1` (stereo partly drawn) [Example 16, 3-(5-(4-((1-(4-((1,2)-cis-2-Cyclopropyl-6-hydroxy-1,2,3,4-tetrahydronaphthalen-1-yl)phenyl)piperidin-4-yl)methyl)piperazin-1-yl)-1-oxoisoindolin-2-yl)piperidine-2,6-dione], the IC50 in the experiment with MCF7 cells was 4.63 nM; in the experiment with MCF7/ERα Y537S cells it was 14.9 nM.

In the case of `C[C@H]1CCc2cc(O)ccc2[C@H]1c1ccc(N2CCC(CN3CCN(c4ccc5c(c4)CN([C@H]4CCC(=O)NC4=O)C5=O)CC3)CC2)cc1` [Example 27, (S)-3-(5-(4-((1-(4-((1R,2S)-6-Hydroxy-2-methyl-1,2,3,4-tetrahydronaphthalen-1-yl)phenyl)piperidin-4-yl)methyl)piperazin-1-yl)-1-oxoisoindolin-2-yl)piperidine-2,6-dione], the IC50 in the experiment with MCF7 cells was found to be 13.4 nM; in the experiment with MCF7/ERα Y537S cells it was 44.6 nM.

In the case of `O=C1CC[C@H](N2Cc3cc(N4CCN(CC5CCN(c6ccc([C@@H]7c8ccc(O)cc8CCC78CCOCC8)cc6)CC5)CC4)ccc3C2=O)C(=O)N1` [Example 22, (S)-3-(5-(4-((1-(4-((R)-6-Hydroxy-2′,3,3′,4,5′,6′-hexahydro-1H-spiro[naphthalene-2,4′-pyran]-1-yl)phenyl)piperidin-4-yl)methyl)piperazin-1-yl)-1-oxoisoindolin-2-yl)piperidine-2,6-dione], the IC50 with MCF7 cells amounted to 3.13 nM; in the experiment with MCF7/ERα Y537S cells, 9.19 nM.
